Results on one compound are retold here after patent US8992783B2, “Process for enantioseparation of chiral systems with compound formation using two subsequent crystallization steps” (Max-Planck-Gessellschaft zur Förderung der Wissenschaften …, priority 2008, dated 2015).

Read-outs that look alike come from different tables or passages of the source.

The conditions of this data set: methionine enantiomers in water.

Consider `CSCC[C@H](N)C(=O)O` (racemic) [methionine], for which the “Solubility at eutectic composition” value reads like this: (274.15 K) “′ 3.83 wt %”; (333.15 K) “′ 9.38 wt %”.
